Results as given in US7074789B2, “Kinase inhibitors” (Amgen Inc., priority 1999, dated 2006).
pIC50: −log10 of the molar value. Read-outs that look alike come from different tables or passages of the source.

Legend:
Format in all cases: biochemical
Itk = molecular target: T1, Itk (Homo sapiens, UniProt Q08881); experiment: Kinase inhibition assay (33P transfer), Itk; conditions: read-out: Itk-1
T1 construct: Kinases are expressed as either kinase domains or full length constructs; made in house
T1 sequence (Q08881 1-620): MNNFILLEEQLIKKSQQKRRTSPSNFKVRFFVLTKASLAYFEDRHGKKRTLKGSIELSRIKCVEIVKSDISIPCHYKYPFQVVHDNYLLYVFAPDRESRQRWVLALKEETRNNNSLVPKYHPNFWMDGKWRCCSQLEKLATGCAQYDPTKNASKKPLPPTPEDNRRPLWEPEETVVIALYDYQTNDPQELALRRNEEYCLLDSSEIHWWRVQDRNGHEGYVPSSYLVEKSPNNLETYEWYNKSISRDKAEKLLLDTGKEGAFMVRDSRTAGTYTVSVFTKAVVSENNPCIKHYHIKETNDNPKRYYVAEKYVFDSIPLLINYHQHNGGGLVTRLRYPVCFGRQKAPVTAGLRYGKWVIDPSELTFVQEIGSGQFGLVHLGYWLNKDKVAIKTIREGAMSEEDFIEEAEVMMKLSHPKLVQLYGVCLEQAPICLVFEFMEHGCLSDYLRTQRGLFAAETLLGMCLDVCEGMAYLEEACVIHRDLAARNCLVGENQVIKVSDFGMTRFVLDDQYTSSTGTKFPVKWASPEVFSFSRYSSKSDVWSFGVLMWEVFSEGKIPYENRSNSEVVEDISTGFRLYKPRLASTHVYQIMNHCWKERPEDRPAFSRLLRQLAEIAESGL
Procedure, shortened: (§1)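 Steps: coat wells with poly(Glu,Tyr) 4:1 or poly(Arg,Ser) 3:1; add purified kinase, [33P]ATP and inhibitor; incubate; wash with 0.5% phosphoric acid; add liquid scintillant; count. IC50 corresponds to half-maximal reduction of bound 33P.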

Tek = molecular target: T2, Tek (Homo sapiens, UniProt Q02763); experiment: Kinase inhibition assay (33P transfer), Tek; conditions: read-out: Tek-1
T2 construct: Kinases are expressed as either kinase domains or full length constructs; made in house
T2 sequence (Q02763 23-1124, species assumed): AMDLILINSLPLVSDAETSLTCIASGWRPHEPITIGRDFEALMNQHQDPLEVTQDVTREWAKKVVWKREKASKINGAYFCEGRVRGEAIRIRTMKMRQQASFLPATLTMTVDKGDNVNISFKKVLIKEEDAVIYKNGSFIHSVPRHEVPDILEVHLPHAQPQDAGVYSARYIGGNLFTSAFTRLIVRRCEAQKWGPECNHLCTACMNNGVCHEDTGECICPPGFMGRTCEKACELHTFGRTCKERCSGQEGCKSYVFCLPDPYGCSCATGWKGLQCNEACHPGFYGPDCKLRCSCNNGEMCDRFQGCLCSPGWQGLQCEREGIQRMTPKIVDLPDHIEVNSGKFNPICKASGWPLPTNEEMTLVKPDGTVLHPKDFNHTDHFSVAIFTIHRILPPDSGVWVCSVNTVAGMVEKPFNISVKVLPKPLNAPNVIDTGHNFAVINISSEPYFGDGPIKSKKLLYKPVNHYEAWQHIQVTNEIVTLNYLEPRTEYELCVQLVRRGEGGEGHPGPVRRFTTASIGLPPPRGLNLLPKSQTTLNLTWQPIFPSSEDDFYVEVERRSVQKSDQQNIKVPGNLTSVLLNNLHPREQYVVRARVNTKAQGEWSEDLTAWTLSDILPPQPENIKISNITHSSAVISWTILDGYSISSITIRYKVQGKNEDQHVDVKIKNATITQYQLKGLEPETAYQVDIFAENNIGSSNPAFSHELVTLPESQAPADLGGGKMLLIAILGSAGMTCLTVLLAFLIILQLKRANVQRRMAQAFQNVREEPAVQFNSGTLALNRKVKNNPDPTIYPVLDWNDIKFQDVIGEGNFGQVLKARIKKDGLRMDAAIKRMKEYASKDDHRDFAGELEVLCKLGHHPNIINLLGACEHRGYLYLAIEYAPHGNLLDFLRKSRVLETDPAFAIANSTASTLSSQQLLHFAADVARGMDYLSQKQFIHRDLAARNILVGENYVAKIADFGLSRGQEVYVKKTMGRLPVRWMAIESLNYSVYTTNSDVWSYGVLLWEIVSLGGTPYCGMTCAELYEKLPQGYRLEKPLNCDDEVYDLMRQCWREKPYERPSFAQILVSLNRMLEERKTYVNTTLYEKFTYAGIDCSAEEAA
Source text: The inhibitor compounds described herein are screened in the following manner. Kinases suitable for use in the following protocol to determine kinase activity of the compounds described herein include, -but are not limited to: Lck, Lyn, Src, Fyn, Syk, Zap-70, Itk, Tec, Btk, EGFR, ErbB2, Kdr, Flt-1, Flt-3, Tek, c-Met, InsR, and AKT.
Kinases are expressed as either kinase domains or full length constructs fused to glutathione S-transferase (GST) or polyHistidine tagged fusion proteins in either E. colior Baculovirus-High Five expression systems. They are purified to near homogeneity by affinity chromatography essentially as previously described (Lehr et al., 1996; Gish et al., 1995). In some instances, kinases are co-expressed or mixed with purified or partially purified regulatory polypeptides prior to measurement of activity.
Kinase activity and inhibition are measured essentially by established protocols (Braunwalder et al., 1996). Briefly, The transfer of ^33PO4 from ATP to the synthetic substrates poly(Glu, Tyr) 4:1 or poly(Arg, Ser) 3:1 attached to the bioactive surface of microtiter plates serves as the basis to evaluate enzyme activity. After an incubation period, the amount of phosphate transferred is measured by first washing the plate with 0.5% phosphoric acid, adding liquid scintillant, and then counting in a liquid scintillation detector. The IC50 is determined by the concentration of compound that causes a 50% reduction in the amount of […] incorporated onto the substrate bound to the plate.

Zap-70 = molecular target: T3, Zap-70 (Homo sapiens, UniProt P43403); experiment: Kinase inhibition assay (33P transfer), Zap-70; conditions: read-out: Zap-1
T3 construct: Kinases are expressed as either kinase domains or full length constructs; made in house
T3 sequence (P43403 1-619): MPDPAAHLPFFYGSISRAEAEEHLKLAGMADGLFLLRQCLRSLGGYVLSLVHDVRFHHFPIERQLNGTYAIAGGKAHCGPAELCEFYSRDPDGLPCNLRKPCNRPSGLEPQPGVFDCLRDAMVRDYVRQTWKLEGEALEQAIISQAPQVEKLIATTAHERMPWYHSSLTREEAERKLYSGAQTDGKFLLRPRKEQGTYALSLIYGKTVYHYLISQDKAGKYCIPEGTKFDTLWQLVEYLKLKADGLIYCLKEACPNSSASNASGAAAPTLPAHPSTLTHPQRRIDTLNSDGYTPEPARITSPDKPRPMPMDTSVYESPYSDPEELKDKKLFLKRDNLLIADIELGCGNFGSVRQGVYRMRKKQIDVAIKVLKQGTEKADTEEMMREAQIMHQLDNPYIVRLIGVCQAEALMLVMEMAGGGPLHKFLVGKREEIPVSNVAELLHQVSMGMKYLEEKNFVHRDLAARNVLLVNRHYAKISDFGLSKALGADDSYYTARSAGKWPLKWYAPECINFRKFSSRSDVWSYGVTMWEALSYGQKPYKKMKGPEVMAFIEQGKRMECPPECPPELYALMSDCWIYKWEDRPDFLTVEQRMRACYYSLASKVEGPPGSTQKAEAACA
Procedure, shortened: (§2)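 Measured by scintillation: radiolabelled phosphate added by tagged recombinant kinases to poly(Glu,Tyr) 4:1 or poly(Arg,Ser) 3:1 attached to microtiter wells, counted once free label was washed away with 0.5% phosphoric acid.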

Lck = molecular target: T4, Lck (Homo sapiens, UniProt P06239); experiment: Kinase inhibition assay (33P transfer), Lck; conditions: read-out: Lck-1
T4 construct: Kinases are expressed as either kinase domains or full length constructs; made in house
T4 sequence (P06239 whole entry, species assumed, the tested form may be a part): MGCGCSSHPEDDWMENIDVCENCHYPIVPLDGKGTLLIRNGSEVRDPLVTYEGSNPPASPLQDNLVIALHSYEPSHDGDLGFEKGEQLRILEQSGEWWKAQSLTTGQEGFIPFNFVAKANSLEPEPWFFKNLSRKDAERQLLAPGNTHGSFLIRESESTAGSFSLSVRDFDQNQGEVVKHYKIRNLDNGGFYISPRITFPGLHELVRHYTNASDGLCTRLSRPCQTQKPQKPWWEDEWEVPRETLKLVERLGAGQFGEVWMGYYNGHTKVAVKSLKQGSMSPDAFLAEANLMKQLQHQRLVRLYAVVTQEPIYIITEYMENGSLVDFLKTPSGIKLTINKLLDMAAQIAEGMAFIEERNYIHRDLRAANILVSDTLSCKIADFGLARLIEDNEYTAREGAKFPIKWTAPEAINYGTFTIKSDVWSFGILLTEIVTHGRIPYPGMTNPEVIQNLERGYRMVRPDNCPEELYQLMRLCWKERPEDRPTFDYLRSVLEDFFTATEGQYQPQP
Procedure, shortened: as §2

c-Met = molecular target: T5, c-Met (Homo sapiens, UniProt P08581); experiment: Kinase inhibition assay (33P transfer), c-Met; conditions: Table 2, kinase inhibition class; read-out: Met-1
T5 construct: Kinases are expressed as either kinase domains or full length constructs; made in house
T5 sequence (P08581 25-1390): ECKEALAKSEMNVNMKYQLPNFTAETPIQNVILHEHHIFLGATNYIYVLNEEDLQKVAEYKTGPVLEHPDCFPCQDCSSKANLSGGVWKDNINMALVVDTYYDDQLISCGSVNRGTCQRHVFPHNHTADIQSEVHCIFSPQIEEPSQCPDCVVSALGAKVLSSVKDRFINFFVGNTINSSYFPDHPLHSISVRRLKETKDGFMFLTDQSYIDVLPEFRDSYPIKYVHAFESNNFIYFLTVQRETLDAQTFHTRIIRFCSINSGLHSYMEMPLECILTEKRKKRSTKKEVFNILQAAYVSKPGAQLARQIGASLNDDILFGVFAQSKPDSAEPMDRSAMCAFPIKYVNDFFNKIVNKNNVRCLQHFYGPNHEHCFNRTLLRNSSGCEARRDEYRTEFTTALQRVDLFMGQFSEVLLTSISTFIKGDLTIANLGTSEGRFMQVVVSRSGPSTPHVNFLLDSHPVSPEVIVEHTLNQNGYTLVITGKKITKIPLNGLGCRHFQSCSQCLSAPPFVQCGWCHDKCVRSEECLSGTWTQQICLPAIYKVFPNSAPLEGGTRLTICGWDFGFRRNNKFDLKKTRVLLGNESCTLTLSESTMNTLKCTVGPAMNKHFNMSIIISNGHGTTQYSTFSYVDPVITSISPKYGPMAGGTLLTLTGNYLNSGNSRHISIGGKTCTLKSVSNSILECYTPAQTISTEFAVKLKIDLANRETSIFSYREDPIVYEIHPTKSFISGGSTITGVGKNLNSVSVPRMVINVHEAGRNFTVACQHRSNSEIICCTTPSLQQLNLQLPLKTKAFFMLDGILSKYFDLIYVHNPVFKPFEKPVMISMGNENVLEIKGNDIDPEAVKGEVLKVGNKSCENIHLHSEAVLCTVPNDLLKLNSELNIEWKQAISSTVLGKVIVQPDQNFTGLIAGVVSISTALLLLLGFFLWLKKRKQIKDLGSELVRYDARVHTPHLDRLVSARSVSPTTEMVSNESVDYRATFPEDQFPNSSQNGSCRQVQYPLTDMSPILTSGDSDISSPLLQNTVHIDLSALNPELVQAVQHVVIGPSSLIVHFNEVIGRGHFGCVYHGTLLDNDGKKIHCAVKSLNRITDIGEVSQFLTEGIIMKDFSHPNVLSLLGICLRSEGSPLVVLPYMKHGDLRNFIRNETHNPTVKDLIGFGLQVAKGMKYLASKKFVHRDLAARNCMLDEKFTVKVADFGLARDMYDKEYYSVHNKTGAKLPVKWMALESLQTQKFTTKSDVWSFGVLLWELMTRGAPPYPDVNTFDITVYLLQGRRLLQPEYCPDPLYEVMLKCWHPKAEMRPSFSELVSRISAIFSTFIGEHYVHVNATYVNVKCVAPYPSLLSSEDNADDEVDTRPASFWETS
Procedure, shortened: as §1

EGFR = molecular target: T6, EGFR (Homo sapiens, UniProt P00533); experiment: Kinase inhibition assay (33P transfer), EGFR; conditions: Table 2, kinase inhibition class; read-out: EGFR-1
T6 construct: Kinases are expressed as either kinase domains or full length constructs; made in house
T6 sequence (P00533 25-1210, species assumed): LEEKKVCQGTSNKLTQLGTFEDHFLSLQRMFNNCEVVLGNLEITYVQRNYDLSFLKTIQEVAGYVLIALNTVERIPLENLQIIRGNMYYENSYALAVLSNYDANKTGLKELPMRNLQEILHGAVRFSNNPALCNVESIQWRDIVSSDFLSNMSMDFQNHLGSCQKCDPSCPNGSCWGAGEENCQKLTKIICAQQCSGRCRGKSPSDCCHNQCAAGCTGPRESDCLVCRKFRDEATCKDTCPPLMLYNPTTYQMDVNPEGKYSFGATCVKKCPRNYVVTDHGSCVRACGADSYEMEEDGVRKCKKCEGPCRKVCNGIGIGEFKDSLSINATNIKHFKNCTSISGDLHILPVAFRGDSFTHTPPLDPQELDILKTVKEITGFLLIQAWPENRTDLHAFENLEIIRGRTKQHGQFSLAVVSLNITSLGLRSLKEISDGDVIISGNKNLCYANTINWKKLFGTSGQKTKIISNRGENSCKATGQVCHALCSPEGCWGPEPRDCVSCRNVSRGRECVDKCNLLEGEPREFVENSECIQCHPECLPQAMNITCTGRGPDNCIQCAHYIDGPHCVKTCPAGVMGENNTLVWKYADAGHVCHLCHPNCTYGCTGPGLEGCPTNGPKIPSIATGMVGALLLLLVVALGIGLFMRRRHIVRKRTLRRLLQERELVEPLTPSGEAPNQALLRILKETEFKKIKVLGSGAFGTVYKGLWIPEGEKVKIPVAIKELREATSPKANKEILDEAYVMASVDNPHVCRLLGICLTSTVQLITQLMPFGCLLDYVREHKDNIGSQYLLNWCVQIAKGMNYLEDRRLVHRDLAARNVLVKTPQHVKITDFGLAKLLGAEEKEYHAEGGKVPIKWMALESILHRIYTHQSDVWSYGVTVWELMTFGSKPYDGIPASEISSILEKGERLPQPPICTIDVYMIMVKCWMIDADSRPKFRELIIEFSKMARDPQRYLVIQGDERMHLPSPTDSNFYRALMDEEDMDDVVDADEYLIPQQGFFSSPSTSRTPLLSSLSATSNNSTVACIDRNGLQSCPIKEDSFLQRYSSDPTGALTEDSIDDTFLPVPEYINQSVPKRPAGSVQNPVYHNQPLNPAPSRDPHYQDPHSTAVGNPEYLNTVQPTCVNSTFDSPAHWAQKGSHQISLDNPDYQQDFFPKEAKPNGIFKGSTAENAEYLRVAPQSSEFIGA
Procedure, shortened: as §1

Kdr = molecular target: T7, Kdr (Homo sapiens, UniProt P35968); experiment: Kinase inhibition assay (33P transfer), Kdr; conditions: read-out: KDR-1
T7 construct: Kinases are expressed as either kinase domains or full length constructs; made in house
Procedure, shortened: as §2

AKT = molecular target: T8, AKT (Homo sapiens, UniProt Q9Y243); experiment: Kinase inhibition assay (33P transfer), AKT; conditions: Table 2, kinase inhibition class; read-out: AKT3-1
T8 construct: Kinases are expressed as either kinase domains or full length constructs; made in house
T8 sequence (Q9Y243 whole entry, the tested form may be a part): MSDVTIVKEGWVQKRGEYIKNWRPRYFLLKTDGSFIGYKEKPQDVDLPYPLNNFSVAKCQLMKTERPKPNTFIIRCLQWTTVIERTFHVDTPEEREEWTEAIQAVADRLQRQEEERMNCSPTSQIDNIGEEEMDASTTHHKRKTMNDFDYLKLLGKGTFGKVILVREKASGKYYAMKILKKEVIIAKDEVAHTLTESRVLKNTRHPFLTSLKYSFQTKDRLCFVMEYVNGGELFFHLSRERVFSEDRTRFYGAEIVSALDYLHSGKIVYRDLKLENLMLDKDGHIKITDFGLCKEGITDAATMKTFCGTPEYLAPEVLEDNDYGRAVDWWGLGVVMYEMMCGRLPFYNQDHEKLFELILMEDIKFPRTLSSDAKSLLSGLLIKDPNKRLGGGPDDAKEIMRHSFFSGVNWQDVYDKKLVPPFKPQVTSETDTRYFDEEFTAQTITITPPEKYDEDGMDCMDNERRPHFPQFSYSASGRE
Procedure, shortened: as §2

| Compound | pIC50 (Itk; Table 3) | pIC50 (Tek) | pIC50 (Zap-70; Table 3) | pIC50 (Lck; Table 3) | pIC50 (c-Met) | pIC50 (EGFR) | pIC50 (Kdr; Table 3) | pIC50 (AKT) | pIC50 (Itk) | pIC50 (Zap-70) | pIC50 (Lck) | pIC50 (Kdr) |
| --- | --- | --- | --- | --- | --- | --- | --- | --- | --- | --- | --- | --- |
| COc1cc(Nc2ncnc(-c3c(O)n(C)c4ccccc34)n2)cc(OC)c1OC [Compound 465] | < 4.96 | < 4.96 | < 4.96 | < 4.96 | < 4.96 | < 4.96 | 5.23 to 6.01 | < 4.96 |  |  |  |  |
| O=c1[nH]c2ccccc2n1-c1ncnc(Nc2cccc([N+](=O)[O-])c2)n1 [Compound 467] | < 4.89 | 5.00 to 5.16 | 5.00 to 5.16 | < 4.89 | < 4.89 | < 4.89 | 5.16 to 5.94 | < 4.89 |  |  |  |  |
| Nc1nc2ccccc2n1-c1ncnc(Nc2ccc(Cl)cc2)n1 [Compound 478] |  | 5.15 to 5.93 |  |  | 5.15 to 5.93 | 5.15 to 5.93 |  | 5.15 to 5.93 | 5.15 to 5.93 | 5.15 to 5.93 | 5.15 to 5.93 | 5.15 to 5.93 |
| Nc1nc2ccccc2n1-c1ncnc(Nc2ccc(-c3ccccc3)cc2)n1 [Compound 480] |  | 5.20 to 5.98 |  |  | 5.20 to 5.98 | 5.20 to 5.98 |  | 5.20 to 5.98 | 4.93 to 5.04 | 5.20 to 5.98 | 5.20 to 5.98 | 5.20 to 5.98 |
| O=c1[nH]c2ccccc2n1-c1ncnc(Nc2ccc(Br)c(Cl)c2)n1 [Compound 483] |  | 5.24 to 6.02 |  |  | < 4.97 | 5.24 to 6.02 |  | < 4.97 | < 4.97 | 5.24 to 6.02 | 5.08 to 5.24 | 5.24 to 6.02 |
| COc1cc(OC)nc(Nc2ncnc(-n3c(=O)[nH]c4ccccc43)n2)n1 [Compound 491] |  | 5.18 to 5.96 |  |  | < 4.91 | < 4.91 |  | < 4.91 | < 4.91 | < 4.91 | < 4.91 | 4.91 to 5.02 |
| O=c1[nH]c2ccccc2n1-c1ncnc(Nc2ccncn2)n1 [Compound 492] |  | 4.94 to 5.11 |  |  | 4.94 to 5.11 | 4.94 to 5.11 |  | < 4.83 | < 4.83 | 4.83 to 4.94 | < 4.83 | 4.94 to 5.11 |
| O=c1[nH]c2ccccc2n1-c1ncnc(Nc2ccccc2[N+](=O)[O-])n1 [Compound 493] |  | 5.00 to 5.16 |  |  | 4.89 to 5.00 | < 4.89 |  | < 4.89 | < 4.89 | < 4.89 | < 4.89 | < 4.89 |
| COc1ccc(Nc2ncnc(-n3c(=O)[nH]c4ccccc43)n2)cc1OC [Compound 494] |  | < 4.91 |  |  | < 4.91 | 5.02 to 5.18 |  | < 4.91 | < 4.91 | < 4.91 | 5.02 to 5.18 | > 5.96 |
| COc1cc(Nc2ncnc(Nc3cc(-c4cccc(Cl)c4)n[nH]3)n2)cc(OC)c1OC [Compound 495] |  | < 5.00 |  |  | 5.28 to 6.05 | 5.28 to 6.05 |  | < 5.00 | < 5.00 | < 5.00 | 5.11 to 5.28 | 5.00 to 5.11 |
